Measurements reported in BigSolDB 2.1.

O=C(O)CCCCCCCC(=O)O
Conditions	solubility (mole fraction)
in acetic acid, 289.05 K	0.022
in acetic acid, 293.95 K	0.0279
in acetic acid, 298.85 K	0.0355
in acetic acid, 303.45 K	0.0452
in acetic acid, 308.35 K	0.0582
in acetic acid, 313.35 K	0.0746
in acetic acid, 318.85 K	0.0964
in acetic acid, 325.35 K	0.132
in acetic acid, 330.95 K	0.169
in acetic acid, 337.35 K	0.223
in acetic acid, 341.75 K	0.265
in acetone, 276.65 K	0.00895
in acetone, 279.45 K	0.0103
in acetone, 283.15 K	0.0129
in acetone, 286.95 K	0.0158
in acetone, 294.15 K	0.0228
in acetone, 297.55 K	0.0275
in acetone, 303.05 K	0.0365
in acetone, 306.55 K	0.0438
in acetone, 312.05 K	0.0587
in acetone, 316.15 K	0.0732
in acetone, 320.95 K	0.1
in acetone, 325.35 K	0.12
in ethanol, 276.75 K	0.0212
in ethanol, 280.05 K	0.0253
in ethanol, 283.25 K	0.0292
in ethanol, 288.15 K	0.0362
in ethanol, 293.05 K	0.0449
in ethanol, 297.55 K	0.0546
in ethanol, 304.05 K	0.069
in ethanol, 307.35 K	0.083
in ethanol, 312.05 K	0.0969
in ethanol, 317.05 K	0.117
in ethanol, 322.05 K	0.143
in ethanol, 326.85 K	0.166
in ethanol, 332.05 K	0.202
in ethanol, 336.55 K	0.234
in ethylene glycol, 278.65 K	0.0083
in ethylene glycol, 283.35 K	0.01
in ethylene glycol, 288.05 K	0.0105
in ethylene glycol, 292.85 K	0.0144
in ethylene glycol, 297.35 K	0.0241
in ethylene glycol, 303.35 K	0.03
in ethylene glycol, 307.35 K	0.0395
in ethylene glycol, 312.25 K	0.0496
in ethylene glycol, 317.05 K	0.0622
in ethylene glycol, 321.55 K	0.0791
in ethylene glycol, 326.45 K	0.103
in ethylene glycol, 331.35 K	0.131
in ethylene glycol, 336.15 K	0.167
